# Test results as given in PMC12845078 (Pharmaceuticals, 2025).
# Marks after values point to notes of the source that are not given here.
# Tests used:
# [1] = Pharmacokinetics of MT, 6-HMT and CBD in beagles after oral administration; details: beagles, p.o.
# Description: Twelve male healthy adult beagles (weighing 10 ± 2 kg) were randomly divided into two groups. […] The drugs were dissolved in a physiological saline solution containing 5% castor oil, with an administration volume of 2 mL/kg. Blood samples were collected at the time points of pre-administration and 0.083, 0.25, 0.5, 0.75, 1, 1.5, 2, 4, 6, 8, and 12 h post-administration.
# (§1) The column temperature was set at 40 °C.
# [2] = Pharmacokinetics of MT, 6-HMT and CBD in SD rats (i.v. and oral); details: rats
# Description: The drugs were dissolved in the same manner as described previously, with an administration volume of 5 mL/kg for all groups. Blood samples were collected at the time points of pre-administration and 0.033 (only for the intravenous administration group), 0.083, 0.25, 0.5, 0.75, 1, 1.5, 2, 4, 6, 8, and 12 h post-administration.
# as §1
# [3] = Pharmacokinetics of MT and CBD in rats after pre-administration of ABT; details: both groups after ABT co-administration, all sampling time points; below lower limit of quantification
# Description: Twelve SD rats were randomly divided into two groups. Both groups were first given an intragastric administration of 1-aminobenzotriazole (ABT) at a dose of 200 mg/kg. […] The administration volume for all groups was 5 mL/kg. […] Approximately 50 μL of venous blood were collected into heparin sodium anticoagulant tubes and placed on ice. The sample processing and storage methods were the same as described previously.
# Subsequently, the resultant mixture was vortexed for 1 minute and centrifuged at 4 °C for 10 min at 18,800× g. […] The lowest limit of quantification (LLOQ) was established at 2 ng/mL.
# Kromasil 100-5-C8 (2.1 × 50 mm) was selected for the separation of samples. The mobile phase consisted of solvent A (water with 0.1% formic acid and 5 mM ammonium acetate) and solvent B (methanol with 0.1% formic acid). […] The column temperature was set at 40 °C. The two eluents were 0.1% formic acid and 5 mM ammonium acetate in water (A) and 0.1% formic acid in methanol (B). […] The main mass spectrometry detection parameters were: dry gas 10 L/min, heated gas 10 L/min, collision gas 270 kPa, ion source temperature 300 °C, desolvation temperature 250 °C, and heating module temperature 400 °C.
# Pharmacokinetic parameters: GraphPad Prism 10.1 software was utilized to draw the curves. Noncompartmental analysis was selected to calculate the major PK parameters, including clearance (CL), volume (V), half-life (t1/2), peak concentration (Cmax), and area under the curve (AUC), using WinNonlin 8.1.
structure (smiles),measurement,setting,value
"COc1cc2c(CCNC(C)=O)c[nH]c2cc1O [6-HMT, 6-Hydroxymelatonin]",AUC(0–t),[1]; MT + CBD (3 + 3) mg/kg,192.4 (72.83) h × ng/mL
same,AUC(0–∞),[1]; MT + CBD (3 + 3) mg/kg,245.7 (69.0) h × ng/mL
same,Cmax,[1]; MT + CBD (3 + 3) mg/kg,62.9 (18.18) ng/mL
same,MRT(0–t),[1]; MT + CBD (3 + 3) mg/kg,2.94 (0.83) h
same,Tmax,[1]; MT + CBD (3 + 3) mg/kg,0.58 (0.20) h
same,t1/2,[1]; MT + CBD (3 + 3) mg/kg,4.11 (1.69) h
same,"ratio of AUC(0–t),6-HMT to AUC(0–t),MT with CBD, as percent of MT alone",[1]; MT + CBD (3 + 3) mg/kg vs MT 3 mg/kg,26%
same,AUC(0–t),[1]; MT + Vehicle 3 mg/kg,179.7 (36.31) h × ng/mL
same,AUC(0–∞),[1]; MT + Vehicle 3 mg/kg,202.1 (46.02) h × ng/mL
same,Cmax,[1]; MT + Vehicle 3 mg/kg,74.80 (10.94) ng/mL
same,MRT(0–t),[1]; MT + Vehicle 3 mg/kg,3.60 (0.81) h
same,Tmax,[1]; MT + Vehicle 3 mg/kg,0.29 (0.10) h
same,t1/2,[1]; MT + Vehicle 3 mg/kg,3.33 (1.11) h
same,AUC(0–t),"[2]; i.v., MT + CBD (1 + 1) mg/kg",33.63 (5.10) h × ng/mL
same,MRT(0–t),"[2]; i.v., MT + CBD (1 + 1) mg/kg",0.38 (0.06) h
same,t1/2,"[2]; i.v., MT + CBD (1 + 1) mg/kg",0.28 (0.04) h
same,AUC(0–1h),"[2]; p.o., MT + CBD (5 + 5) mg/kg",77.02 (26.81) h × ng/mL
same,AUC(0–t),"[2]; p.o., MT + CBD (5 + 5) mg/kg",110.2 (39.21) h × ng/mL
same,Cmax,"[2]; p.o., MT + CBD (5 + 5) mg/kg",125.1 (33.41) ng/mL
same,MRT(0–t),"[2]; p.o., MT + CBD (5 + 5) mg/kg",0.88 (0.11) h
same,Tmax,"[2]; p.o., MT + CBD (5 + 5) mg/kg",0.33 (0.13) h
same,t1/2,"[2]; p.o., MT + CBD (5 + 5) mg/kg",1.72 (1.48) h
same,AUC(0–1h),"[2]; p.o., MT + CBD (5 + 20) mg/kg",48.98 (8.27) ** h × ng/mL
same,AUC(0–t),"[2]; p.o., MT + CBD (5 + 20) mg/kg",123.2 (15.77) h × ng/mL
same,Cmax,"[2]; p.o., MT + CBD (5 + 20) mg/kg",64.17 (10.40) ** ng/mL
same,MRT(0–t),"[2]; p.o., MT + CBD (5 + 20) mg/kg",2.37 (0.38) ** h
same,Tmax,"[2]; p.o., MT + CBD (5 + 20) mg/kg",0.33 (0.20) h
same,t1/2,"[2]; p.o., MT + CBD (5 + 20) mg/kg",3.41 (1.90) h
same,AUC(0–1h),"[2]; p.o., MT + Vehicle 5 mg/kg",90.04 (26.46) h × ng/mL
same,AUC(0–t),"[2]; p.o., MT + Vehicle 5 mg/kg",125.2 (21.64) h × ng/mL
same,Cmax,"[2]; p.o., MT + Vehicle 5 mg/kg",145.6 (40.82) ng/mL
same,MRT(0–t),"[2]; p.o., MT + Vehicle 5 mg/kg",1.41 (0.59) h
same,Tmax,"[2]; p.o., MT + Vehicle 5 mg/kg",0.25 (0) h
same,t1/2,"[2]; p.o., MT + Vehicle 5 mg/kg",1.56 (0.90) h
same,plasma concentration,[3],< 2 ng/mL
